Results from patent US20200190073A1, “SUBSTITUTED SUCCINIMIDE DERIVATIVES AS PESTICIDES” (BASF SE, priority 2017, published 2020).
Where two headings read alike, the source gives them in different places.

What was measured:
Type in all cases: in vivo
[1] = test system: Boll Weevil (Anthonomus grandis); experiment: B.5 Boll weevil, insect diet with eggs; details: 120 h, 2500 ppm, egg and larval mortality, 5 days, read-out: mortality in comparison with untreated controls
Experimental: B.5 Boll Weevil (Anthonomus grandis)
For evaluating control of boll weevil (Anthonomus grandis) the test unit consisted of 96-well-microtiter plates containing an insect diet and 5-10 A. grandis eggs.
The compounds were formulated using a solution containing 75% v/v water and 25% v/v DMSO. Different concentrations of formulated compounds were sprayed onto the insect diet at 5 μl, using a custom built micro atomizer, at two replications.
After application, microtiter plates were incubated at about 25±1° C. and about 75±5% relative humidity for 5 days. Egg and larval mortality was then visually assessed.

[2] = test system: Neotropical Brown Stink Bug (Euschistus heros); experiment: B.12 Neotropical brown stink bug, dipped pole bean; details: 120 h, 500 ppm, adults, 5 days, read-out: mortality in comparison with untreated controls
Experimental: B.12 Neotropical Brown Stink Bug (Euschistus heros)
For evaluating control of Euschistus heros through contact the test unit consisted of 100 ml disposable plastic beakers with transparent lids.
The compounds were formulated using a solution containing 50% water and 50% acetone. 50 ml of different concentrations of formulated compounds or mixtures were prepared in a glass petri dish and used for dipping three 6 cm sections of fresh pole bean. Each treatment was replicated eight times.
After application, the pole bean sections were air-dried and 5 adult E. heros placed in each beaker. The E. heros were then allowed to suck on the treated pole bean sections and incubated at 23±1° C., 50±5% RH for 5 days. E. heros mortality was then visually assessed.

[3] = test system: Green Soldier Stink Bug (Nezara viridula); experiment: B.11 Green soldier stink bug, sprayed soybean pods; details: 120 h, 300 ppm, late 3rd instar, after 5 days, read-out: mortality in comparison with untreated controls
Experimental: B.11 Green Soldier Stink Bug (Nezara viridula)
The active compound was dissolved at the desired concentration in a mixture of 1:1 (vol:vol) distilled water:acetone. Surfactant (Kinetic HV) was added at a rate of 0.01% (vol/vol). The test solution was prepared at the day of use. Soybean pods were placed in glass Petri dishes lined with moist filter paper and inoculated with ten late 3rd instar N. viridula. Using a hand atomizer, approximately 2 ml solution is sprayed into each Petri dish. Assay arenas were kept at about 25° C. Percent mortality was recorded after 5 days.

[4] = test system: Orchid Thrips (Dichromothrips Corbetti); experiment: B.7 Orchid thrips, floral immersion; details: 300 ppm; adult thrips; 72 hours after treatment; read-out: mortality in comparison with untreated controls
Experimental: B.7 Orchid Thrips (Dichromothrips Corbetti)
Dichromothrips corbetti adults used for bioassay were obtained from a colony maintained continuously under laboratory conditions. For testing purposes, the test compound is diluted in a 1:1 mixture of acetone:water (vol:vol), plus Kinetic HV at a rate of 0.01% v/v.
Thrips potency of each compound was evaluated by using a floral-immersion technique. All petals of individual, intact orchid flowers were dipped into treatment solution and allowed to dry in Petri dishes. Treated petals were placed into individual re-sealable plastic along with about 20 adult thrips. All test arenas were held under continuous light and a temperature of about 28° C. for duration of the assay. After 3 days, the numbers of live thrips were counted on each petal. The percent mortality was recorded 72 hours after treatment.

[5] = test system: Diamond back moth (Plutella xylostella); experiment: B.1 Diamond back moth, cabbage leaf dip; details: foliar, 300 ppm, cabbage leaf dip, 3rd instar larvae, 72 hours after treatment, read-out: mortality in comparison with untreated controls
Experimental: B.1 Diamond back moth (Plutella xylostella)
(§1) The active compound was dissolved at the desired concentration in a mixture of 1:1 (vol:vol) distilled water:acetone. Surfactant (Kinetic HV) was added at a rate of 0.01% (vol/vol). The test solution was prepared at the day of use.
Leaves of cabbage were dipped in test solution and air-dried. Treated leaves were placed in petri dishes lined with moist filter paper and inoculated with ten 3rd instar larvae. Mortality was recorded 72 hours after treatment. Feeding damages were also recorded using a scale of 0-100%.

[6] = test system: Red Spider Mite (Tetranychus kanzawai); experiment: B.9 Red spider mite, sprayed cowpea beans; details: 300 ppm, 72 hours after treatment, read-out: mortality in comparison with untreated controls
Experimental: B.9 Red Spider Mite (Tetranychus kanzawai)
The active compound was dissolved at the desired concentration in a mixture of 1:1 (vol:vol) distilled water:acetone. Add surfactant (Kinetic HV) was added at a rate of 0.01% (vol/vol).The test solution was prepared at the day of use.
Potted cowpea beans of 4-5 days of age were cleaned with tap water and sprayed with 1-2 ml of the test solution using air driven hand atomizer. The treated plants were allowed to air dry and afterwards inoculated with 30 or more mites by clipping a cassava leaf section from rearing population. Treated plants were placed inside a holding room at about 25-27° C. and about 50-60% relative humidity. Percent mortality was assessed 72 hours after treatment.

[7] = test system: Green Peach Aphid (Myzus persicae); experiment: B.2 Green peach aphid, artificial diet, systemic; details: 72 h, 2500 ppm, adult aphids on treated diet, 3 days, read-out: mortality in comparison with untreated controls
Text: B.2 Green Peach Aphid (Myzus persicae)
For evaluating control of green peach aphid (Myzus persicae) through systemic means the test unit consisted of 96-well-microtiter plates containing liquid artificial diet under an artificial mem brane.
The compounds were formulated using a solution containing 75% v/v water and 25% v/v DMSO. Different concentrations of formulated compounds were pipetted into the aphid diet, using a custom built pipetter, at two replications.
After application, 5-8 adult aphids were placed on the artificial membrane inside the microtiter plate wells. The aphids were then allowed to suck on the treated aphid diet and incubated at about 23±1° C. and about 50±5% relative humidity for 3 days. Aphid mortality and fecundity was then visually assessed.

[8] = test system: Rice Green Leafhopper (Nephotettix virescens); experiment: B.8 Rice green leafhopper, sprayed rice seedlings; details: 300 ppm, adults on sprayed rice seedlings, after 72 hours, read-out: mortality in comparison with untreated controls
Experimental: B.8 Rice Green Leafhopper (Nephotettix virescens)
(§2) Rice seedlings were cleaned and washed 24 hours before spraying. The active compounds were formulated in 1:1 acetone:water (vol:vol), and 0.01% vol/vol surfactant (Kinetic HV) was added. Potted rice seedlings were sprayed with 5-6 ml test solution, air dried, covered with Mylar cages and inoculated with 10 adults. Treated rice plants were kept at about 28-29° C. and relative humidity of about 50-60%. Percent mortality was recorded after 72 hours.

[9] = test system: Vetch Aphid (Megoura viciae); experiment: B.3 Vetch aphid, broad bean leaf disks; details: foliar, 120 h, 2500 ppm, sprayed leaf disks, 5 days, read-out: mortality in comparison with untreated controls
Experimental: B.3 Vetch Aphid (Megoura viciae)
For evaluating control of vetch aphid (Megoura viciae) through contact or systemic means the test unit consisted of 24-well-microtiter plates containing broad bean leaf disks.
The compounds were formulated using a solution containing 75% v/v water and 25% v/v DMSO. Different concentrations of formulated compounds were sprayed onto the leaf disks at 2.5 μl, using a custom built micro atomizer, at two replications.
After application, the leaf disks were air-dried and 5-8 adult aphids placed on the leaf disks inside the microtiter plate wells. The aphids were then allowed to suck on the treated leaf disks and incubated at about 23±1° C. and about 50±5% relative humidity for 5 days. Aphid mortality and fecundity was then visually assessed.

[10] = test system: Diamond back moth (Plutella xylostella); experiment: CE.6 Diamond back moth, contact activity, comparative test; details: 0.1 ppm, contact activity, third-instar larvae sprayed, read-out: % mortality in comparison to untreated controls
Experimental: (§3) The tables show % mortality in comparison to untreated controls.
CE.6 Diamond Back Moth (Plutella xylostella)
Ten third-instar larvae are sprayed with 1 ml test solution and introduce to untreated leaves held petri dished lined with moist filter paper. Mortality is recorded 24, 72, and 120 hours after treatment.

[11] = test system: Tobacco Budworm (Heliothis virescens); experiment: B.4 Tobacco budworm, insect diet with eggs; details: 120 h, 2500 ppm, egg and larval mortality, 5 days, read-out: mortality in comparison with untreated controls
Experimental: B.4 Tobacco Budworm (Heliothis virescens)
For evaluating control of tobacco budworm (Heliothis virescens) the test unit consisted of 96-well-microtiter plates containing an insect diet and 15-25 H. virescens eggs.
The compounds were formulated using a solution containing 75% v/v water and 25% v/v DMSO. Different concentrations of formulated compounds were sprayed onto the insect diet at 10 μl, using a custom built micro atomizer, at two replications.
After application, microtiter plates were incubated at about 28±1° C. and about 80±5% relative humidity for 5 days. Egg and larval mortality was then visually assessed.

[12] = test system: Brown Marmorated Stink Bug (Halyomorpha halys); experiment: B.13 Brown marmorated stink bug, spray; details: 120 h, 100 ppm, adults, after 5 days, read-out: mortality in comparison with untreated controls
Experimental: B.13 Brown Marmorated Stink Bug (Halyomorpha halys)
as §1
Row peanuts and soybean seeds were placed into microwavable plastic cups and inoculated with five adult stage H. halys. Using a hand atomizer, approximately 1 ml solution is sprayed into each cup, insects and food present. A water source was provided (cotton wick with water) Each treatment is replicated 4-fold. Assay arenas are kept at about 25° C. Percent mortality was recorded after 5 days.

[13] = test system: Cowpea Aphid (Aphis Craccivora); experiment: CE.1 Cowpea aphid, comparative test; details: read-out: % mortality in comparison to untreated controls
Experimental: as §3
CE.1 Cowpea Aphid (Aphis Craccivora)
Potted cowpea plants colonized with approximately 100-150 aphids of various stages were sprayed after the pest population has been recorded. Population reduction was assessed after 24, 72, and 120 hours.

[14] = test system: Orchid Thrips (Dichromothrips Corbetti); experiment: CE.3 Orchid thrips, comparative test; details: 96 h, read-out: % mortality in comparison to untreated controls
Experimental: as §3
CE.3 Orchid Thrips (Dichromothrips Corbetti)
Dichromothrips corbetti adults used for bioassay were obtained from a colony maintained continuously under laboratory conditions. For testing purposes, the test compound was diluted to a concentration of 300 ppm (wt compound: vol diluent) in a 1:1 mixture of acetone:water (vol:vol), plus 0.01% vol/vol Kinetic® surfactant.
Thrips potency of each compound was evaluated by using a floral-immersion technique. Plastic petri dishes were used as test arenas. All petals of individual, intact orchid flowers were dipped into treatment solution and allowed to dry. Treated flowers were placed into individual petri dishes along with 10-15 adult thrips. The petri dishes were then covered with lids. All test arenas were held under continuous light and a temperature of about 280C for duration of the assay. After 4 days, the numbers of live thrips were counted on each flower, and along inner walls of each petri dish. The level of thrips mortality was extrapolated from pre-treatment thrips numbers.

[15] = test system: Rice Brown Plant Hopper (Nilaparvata lugens); experiment: CE.2 Rice brown plant hopper, comparative test; details: read-out: % mortality in comparison to untreated controls
Experimental: as §3
CE.2 Rice Brown Plant Hopper (Nilaparvata lugens)
as §2, with “50:50” for “1:1”, “(vol:vol)” for “(vol:vol),”, “0.1%” for “0.01%”, “(EL 620)” for “(Kinetic HV)”, “5” for “5-6”, “placed in” for “covered with Mylar”

[16] = test system: Silverleaf Whitefly (Bemisia argentifolii); experiment: CE.4 Silverleaf whitefly, comparative test; details: 72 h, read-out: % mortality in comparison to untreated controls
Experimental: as §3
CE.4 Silverleaf Whitefly (Bemisia argentifolii)
The active compounds were formulated in 50:50 acetone:water (vol:vol) and 100 ppm Kinetica™ surfactant.
Selected cotton plants were grown to the cotyledon state (one plant per pot). The cotyledons were dipped into the test solution to provide complete coverage of the foliage and placed in a well-vented area to dry. Each pot with treated seedling was placed in a plastic cup and 10 to 12 whitefly adults (approximately 3-5 day old) were introduced. The insects were collected using an aspirator and a Tygon® tubing connected to a barrier pipette tip. The tip, containing the collected insects, was then gently inserted into the soil containing the treated plant, allowing insects to crawl out of the tip to reach the foliage for feeding. The cups were covered with a reusable screened lid. Test plants were maintained in the holding room at about 25° C. and about 20-40% relative humidity for 3 days avoiding direct exposure to the fluorescent light (24 hour photoperiod) to prevent trapping of heat inside the cup. Mortality was assessed 3 days after treatment of the plants.

[17] = test system: Rice Green Leafhopper (Nephotettix virescens); experiment: CE.5 Rice green leafhopper, comparative test; details: 3 ppm, after 72 hours, read-out: % mortality in comparison to untreated controls
Experimental: as §3
CE.5 Rice Green Leafhopper (Nephotettix virescens)
as §2, with “50:50” for “1:1”, “0.1%” for “0.01%”, “(EL 620)” for “(Kinetic HV)”, “5” for “5-6”, “placed in” for “covered with Mylar”

CN1C(=O)CC(NC(=O)c2ccc(C3=NOC(c4ccc(F)c(Cl)c4)(C(F)(F)F)C3)c3c2CCC3)C1=O (stereo not drawn) [Compound I-1-11]
mortality at 2500 ppm [1]: > 75% | mortality at 500 ppm [2]: > 75% | mortality at 300 ppm [3]: > 75% | mortality at 300 ppm [4]: > 75% | mortality at 300 ppm [5]: > 75% | mortality at 300 ppm [6]: > 75% | mortality at 2500 ppm [7]: > 75% | mortality at 300 ppm [8]: > 75% | mortality at 2500 ppm [9]: > 75% | mortality at 0.1 ppm [10]: 75% | mortality at 2500 ppm [11]: > 75% | mortality at 100 ppm [12]: > 75%

Cc1cc(C2=NOC(c3cc(Cl)cc(Cl)c3)(C(F)(F)F)C2)ccc1C(=O)NC1CCN(CC(F)(F)F)C1=O (stereo not drawn) [No. 5-405 of US 20070066617, reference compound]
mortality at 10 ppm [13]: 25% | mortality at 10 ppm [14]: 0% | mortality at 10 ppm ([15]; 72 h): 0% | mortality at 10 ppm [16]: 25%

CCN1CCC(NC(=O)c2ccc(C3=CCC(c4ccc(F)c(Cl)c4)(C(F)(F)F)C3)cc2Cl)C1=O (stereo not drawn) [No. I-9 of WO 2017/016883]
mortality at 10 ppm ([13]; 10 ppm, sprayed cowpea plants): 25% | mortality at 10 ppm ([14]; 10 ppm, after 4 days): 0% | mortality at 3 ppm [17]: 0% | mortality at 10 ppm ([15]; 10 ppm, after 72 hours): 25% | mortality at 10 ppm ([16]; 10 ppm, 3 days after treatment): 25%
